pEC50: −log10 of the molar value. “Also recorded” adds a separate entry of the source.
What was measured:
coronin 1 promoter = experiment: Fluorescence-based screening assay: coronin 1 promoter driven GFP in RBL cells (microplate reader / microscopy); type: cell-based; details: 48 h
Description: The murine coronin 1 promoter sequences of SEQ ID NO: 1-6 were each cloned into a plasmid lacking a promoter (promoterless) but containing a destabilized Green Fluorescence Protein (GFP) cassette. Rat Basophil Leukemia (RBL) cells were transfected with the plasmids, stable GFP expressing cells were enriched, incubated with various compounds and assessed for coronin 1 promoter inhibition by assessing green fluorescence values (FIG. 2).
The plasmids were independently transfected into immune cells (Rat basophil Leukemia, RBL cells) to generate green and red fluorescent RBL cells that were subsequently enriched by means of flow cytometry. These cells were then mixed in equal ratio (1:1) and incubated in a 96 well plate at 100,000 cells/well in a volume of 200 μl of phenol red free RPMI supplemented with 8% fetal calf serum, L-glutamate and antibiotics (penicillin, […]) from available chemical libraries. At defined time points (8 h, 24 h and 48 h), the GFP and RFP fluorescence was measured using a 96 well microplate reader (Synergy, BioTek Instruments). […] Selected compounds show different levels of modulation of coronin 1 promoter driven GFP and CMV promoter driven RFP fluorescence. GFP and RFP fluorescence were analyzed with a microplate reader upon incubation with the top coronin 1 promoter inhibiting compounds. Shown are percentage of GFP reduction (left column) and percentage of RFP reduction (right column) for the compounds at 5 μg/ml concentration at 48 h. Cycloheximide (CHX) serves as positive control whereas media and DMSO serve as negative controls. […] Cells were imaged using a fluorescence microscope to validate fluorescence inhibition (FIG. 3A) and as well assess morphology and viability (in addition to GFP down regulation confirmation). In addition, quantitative Polymerase Chain Reaction (qPCR) for coronin 1 mRNA transcripts reveal reduction with compound 11 (FIG. 3B). The primers used for the qPCR on RBL cells are listed below as follows;

RBL cells [1] = experiment: Cell viability by live-dead staining (cytotoxicity), flow cytometry; type: cell-based, Rat; details: Rattus norvegicus, RBL, cell viability via live/dead staining, 48-65 h, read-out: EC50 Toxicity
Method in brief: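 RBL cells with coronin 1 promoter-GFP, mixed 1:1 with CMV promoter-RFP RBL cells, exposed to compound 48-65 h. Flow cytometry read RFP fluorescence for non-specific promoter inhibition and live-dead staining for cytotoxicity. EC50 values derived; cycloheximide positive control, DMSO negative.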

RBL cells [2] = experiment: In vitro toxicity, Alamar blue assay; type: cell-based, Rat
Description: In vitro cytotoxicity tests were performed using Alamar blue (Invitrogen, USA) following manufacturers protocol. In brief, RBL cells pretreated with coronin 1 expression inhibitor or vehicle controls were reseeded and cultured in a 96-well plate at a concentration of 1×10^4 cells/ml of culture media. Alamar blue was added to the wells and further incubated at 37° C. for 4 h. The absorbance was measured at 600 nm using a microplate reader (Synergy, BioTek Instruments). DMSO and cycloheximide served as the vehicle and positive control respectively (FIG. 5A).

[3] = In vivo toxicity: hematological parameters (ADVIA) and body weight; details: 150 mg/kg/body weight, BD, IP, six-day administration
Description: Coronin 1 expression inhibitor (compound 11) was initially dissolved in DMSO at 100 mg/ml concentration. In parallel, a 50:50 solution of miglyol 812 and kolliphor EL (M+K) was prepared. Coronin 1 expression inhibitor: M+K was mixed at a ratio of 30:70 and vortexed for 5 minutes to make a homogenous suspension such that a final concentration of 30 mg/ml was obtained. 100 μl/mouse was subsequently administered either intraperitoneally or subcutaneously using an insulin syringe. The mice used for the study were separated into age and sex matched cohorts, weighed prior to start of the study and regularly monitored for body weight, behavioural changes, fur changes, faecal consistency and urine colour. […]

## COC(=O)C1=C(C)NC2=C(C(=O)CC(c3ccccc3OC)C2)C1c1cccc(O)c1 (centres unmarked) [Comp. 11, methyl-4-(3-hydroxyphenyl)-7-(2-methoxyphenyl)-2-methyl-5-oxo-1,4,5,6,7,8-hexahydro-3-quinolinecarboxylate]
Coronin 1 promoter; 10 μg/ml, confocal microscope
  coronin 1 promoter driven GFP, imaged by microscope: selectively reduce GFP values; also recorded: selective reduction
Coronin 1 promoter; RBL, 5 μg/ml, microplate reader, DMSO = 100, read-out: GFP values (%)
  activity at 5 µg/mL: 35%
RBL cells [1]
  pEC50: < 5.05
RBL cells [2]
  in vitro toxicity by Alamar blue assay: minimal toxicity
[3]
  in vivo toxicity: hematological parameters (RBC, WBC, platelet counts, hemoglobin), body weight: did not reveal any potential toxicity; also recorded: good safety and tolerability

From patent US20260102387A1, “IMMUNOSUPPRESSIVE COMPOUNDS” (UNIVERSITÄT BASEL, priority 2022, published 2026)
